Measured values as given in patent publication US8530419B2, “Process for the synchronization of ovulation for timed breeding without heat detection” (priority 2003, dated 2013).

How the values were obtained:
Format in all cases: in vivo, swine
[1] = system: postpartum sows; assay: Litter size after deslorelin treatment at three farm sites (Example 4); settings: Tables 3, 4 and 5; regardless of estrus detection
From the text: Postpartum sows were randomly distributed into three different groups comprised of Controls, Treatment 1, and Treatment 2, with the exception of Site 3, which was divided into two groups, Control and Treatment 2. Control sows were detected for estrus following weaning, and bred following the normal standard operating procedures for the farms on which they resided. Treatment 1 sows were detected for estrus following weaning, and received a 50 mcg dose of deslorelin in the morning when standing and were bred by AI 4 hours later and again at 24+/−2 hours later. Treatment 2 sows received a 50 mcg dose of deslorelin in SAIB at 96 or 120 hours post-weaning and were bred with a single insemination 28+/−2 hours later with no regard to estrus detection.

[2] = system: postpartum sows; assay: Timed deslorelin injection 96 hours post-weaning, single timed insemination without estrus detection (Example 3)
Method: Approximately 170 postpartum sows were randomly divided into two equal groups comprised of controls and treated. Following weaning, the controls were detected for estrus and bred following the normal standard operating procedures for the farms on winch they resided. The treated sows received a 50 mcg dose of deslorelin in SAIB at 96 hours post-weaning and were bred with a single insemination 28+/−2 hours later with no regard to estrus detection. The sows were examined for pregnancy by ultrasound at 21 days and slaughtered around 28 days post breeding. The entire reproductive tract was removed and corpora lutea and embryos were counted.

[3] = system: ovariectomized estrogen primed gilt; assay: Dose response study of LH release in ovariectomized estrogen primed gilt model (RIA); settings: single injection of 50 mcg deslorelin in SAIB
Method: A dose response study was performed using deslorelin in SAIB in an ovariectomized estrogen primed gilt model (Barb, et at (1999) Proceed. Int'l. Symp. Control, Rel. Bioact. Mater., 26).

## CCNC(=O)[C@@H]1CCCN1C(=O)[C@H](CCCN=C(N)N)NC(=O)[C@H](CC(C)C)NC(=O)[C@@H](Cc1c[nH]c2ccccc12)NC(=O)[C@H](Cc1ccc(O)cc1)NC(=O)[C@H](CO)NC(=O)[C@H](Cc1c[nH]c2ccccc12)NC(=O)[C@H](Cc1cnc[nH]1)NC(=O)[C@@H]1CCC(=O)N1 [Deslorelin, deslorelin]
[1]
  litter sizes (in words): normal litter sizes
[2]; 50 mcg in SAIB at 96 hours post-weaning, single insemination 28+/-2 hours later, no estrus detection
  Pregnancy Rate: 71%
[2]; 50 mcg in SAIB at 96 hours post-weaning, slaughtered around 28 days post breeding
  Embryo Survival: 64%
[2]; single timed injection post-weaning, single timed insemination, no estrus detection
  pregnancy rates (in words): normal pregnancy rates were attained
[3]
  time at which LH returned to base level: ≤ 18 h
[3]; compared to Hansel et al. (1973)
  LH peak: about twice normal value
